Source: US20240238422A1 (Osprey Biopharmaceuticals, Inc., priority 2021, published 2024)

How the values were obtained:
[1] = molecular target: T1, human CD22 (Homo sapiens, UniProt P20273); experiment: SPR binding of synthetic Siglec ligands to human CD22 ectodomain (Biacore 8K+); details: for Kd: SPR, alkyne-terminating precursors of the PFP linkers, read-out: Human Siglec-2 Binding Affinity; for Human Siglec-2 Binding Affinity: grade in words for the conjugatable Siglec ligand-linker
T1 construct: Fc (human CD22-Fc fusion); purchased R&D Systems AV11968-050
Protocol: (§1) The following ligands were evaluated for mouse and human CD22 binding: 1) BPC-Neu5Gc PEG (Cpd. No. 26463), 2) BPC-Neu5Gc GAL (Cpd. No. 26339), 3) MPB-Neu5Ac PEG (Cpd. No. 26334), 4) MPB-Neu5Ac GAL (Cpd. No. 26409), 5) Neu5Gc PEG (Cpd. No. 26591). All tested compounds are alkyne-terminating precursors of PFP-terminating, conjugatable Siglec Linker structures used in conjugates in the following examples.
(§2) Binding assays for synthetic CD22 ligand binding to CD22 receptor ectodomain were run on a Biacore 8K+ instrument (Cytiva). Surface preparation for CD22 conjugates binding to human or mouse CD22 protein consisted of two steps, covalent immobilization of streptavidin followed by capture of Avi-tagged and biotinylated human CD22-Fc fusion (R&D Systems, Cat #AV11968-050) and a mono-Fc fusion of mouse CD22. Using standard amine coupling protocols, Streptavidin (Invitrogen, Cat #: 434301) was immobilized to a Cytiva CM5 chip (Cytiva, Cat #BR100530) by injecting at 100 ug/mL in Sodium Acetate, pH 4.5 (Cytiva, Cat #BR100350) on both flow cells, yielding a final response of 2500 RU. Capture of biotinylated mono Fc human CD22 was performed on channels 1-4 and mouse CD22 on channels 5-8 on the active flow cell (2) and the reference flow cell (1) was kept as unmodified streptavidin to account for any non-specific binding. Human CD22 or mouse CD22 (mono-Fc fusion, 5 μg/mL) was injected on the active flow cell (2) for 90 seconds at 5 μL/min, yielding about 210 RU of captured constructs.
(§3) Binding experiments of Siglec-ligand conjugated proteins were performed on the surfaces prepared above in HBS-EP+ (10 mM HEPES, 150 mM NaCl, 3 mM EDTA, 0.05% Tween-20, pH 7.5) as the running buffer. Conjugates were serially diluted 1:1 in running buffer from 1 μM to 31.25 nM and injected over both the reference and active flow cells for 90 seconds at 30 μL/min. The conjugates were then allowed to dissociate from the surface for 300 seconds. No regeneration was required as the conjugates completely dissociated from the surface after 30 seconds.

[2] = molecular target: T2, mouse CD22 (Mus musculus, UniProt P35329); experiment: SPR binding of synthetic Siglec ligands to mouse CD22 ectodomain (Biacore 8K+); details: for Kd: SPR, alkyne-terminating precursors of the PFP linkers, read-out: Mouse Siglec-2 Binding Affinity; for Mouse Siglec-2 Binding Affinity: grade in words for the conjugatable Siglec ligand-linker
T2 construct: synthetic Siglec ligands for recombinant human and mouse CD22 ectodomains
T2 sequence (P35329 22-708 limits assumed): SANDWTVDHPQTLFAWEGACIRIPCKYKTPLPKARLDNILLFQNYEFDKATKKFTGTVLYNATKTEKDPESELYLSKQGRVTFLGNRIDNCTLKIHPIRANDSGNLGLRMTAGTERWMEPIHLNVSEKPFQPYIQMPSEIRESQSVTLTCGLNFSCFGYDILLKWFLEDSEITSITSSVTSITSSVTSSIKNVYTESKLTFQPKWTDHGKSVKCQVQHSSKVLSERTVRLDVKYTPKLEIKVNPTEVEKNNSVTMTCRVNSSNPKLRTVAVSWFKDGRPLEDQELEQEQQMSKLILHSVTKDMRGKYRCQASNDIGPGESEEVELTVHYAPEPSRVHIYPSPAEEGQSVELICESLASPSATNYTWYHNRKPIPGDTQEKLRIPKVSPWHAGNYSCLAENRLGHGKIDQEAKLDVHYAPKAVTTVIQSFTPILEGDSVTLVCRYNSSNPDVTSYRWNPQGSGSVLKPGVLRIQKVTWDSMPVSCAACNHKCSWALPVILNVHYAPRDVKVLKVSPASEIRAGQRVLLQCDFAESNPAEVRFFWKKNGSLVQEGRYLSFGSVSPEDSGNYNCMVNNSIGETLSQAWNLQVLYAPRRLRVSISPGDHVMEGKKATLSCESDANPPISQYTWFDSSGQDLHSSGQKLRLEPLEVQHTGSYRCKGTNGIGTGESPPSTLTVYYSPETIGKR
Protocol: as §1, §2, §3

T1 sequence (P20273 20-687 limits assumed): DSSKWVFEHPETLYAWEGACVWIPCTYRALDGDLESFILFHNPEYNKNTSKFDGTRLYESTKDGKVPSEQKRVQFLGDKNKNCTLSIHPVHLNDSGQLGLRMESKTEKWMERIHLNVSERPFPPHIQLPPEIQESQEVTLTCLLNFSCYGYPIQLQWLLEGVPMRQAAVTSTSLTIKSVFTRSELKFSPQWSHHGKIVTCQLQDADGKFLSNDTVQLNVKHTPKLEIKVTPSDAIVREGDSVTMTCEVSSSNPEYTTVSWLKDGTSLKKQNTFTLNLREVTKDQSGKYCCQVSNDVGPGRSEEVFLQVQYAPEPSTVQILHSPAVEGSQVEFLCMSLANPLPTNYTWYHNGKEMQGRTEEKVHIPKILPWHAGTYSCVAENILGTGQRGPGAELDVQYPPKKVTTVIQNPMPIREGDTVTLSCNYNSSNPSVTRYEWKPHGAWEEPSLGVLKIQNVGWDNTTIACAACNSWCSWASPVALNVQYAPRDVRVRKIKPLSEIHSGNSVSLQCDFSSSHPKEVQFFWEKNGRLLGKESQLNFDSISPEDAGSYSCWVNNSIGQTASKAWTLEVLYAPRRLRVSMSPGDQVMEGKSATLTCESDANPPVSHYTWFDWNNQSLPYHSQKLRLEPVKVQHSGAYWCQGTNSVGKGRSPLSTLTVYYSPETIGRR

Compound	Kd [1] [µM]	Kd [2] [µM]	Human Siglec-2 Binding Affinity [1]	Mouse Siglec-2 Binding Affinity [2]
C#CCOCCOCCO[C@]1(C(=O)O)C[C@H](O)[C@@H](NC(C)=O)[C@H]([C@H](O)[C@H](O)CNC(=O)c2cccc(Oc3ccccc3)c2)O1 [Cpd. No. 26334, (2R,4S,5R,6R)-5-acetamido-6-((1R,2R)-1,2-dihydroxy-3-(3-phenoxybenzamido)propyl)-4-hydroxy-2-(2-(2-(prop-2-yn-1-yloxy)ethoxy)ethoxy)tetrahydro-2H-pyran-2-carboxylic acid]	0.93	> 100		
CC(=O)N[C@H]1[C@H]([C@H](O)[C@H](O)CNC(=O)c2cccc(Oc3ccccc3)c2)O[C@@](OC[C@H]2O[C@@H](OCCc3cn(CCOCCOCCC(=O)NCCCC[C@H](NC(=O)CCCNC(=O)CCOCCOCCn4cc(CCO[C@@H]5O[C@H](CO[C@]6(C(=O)O)C[C@H](O)[C@@H](NC(C)=O)[C@H]([C@H](O)[C@H](O)CNC(=O)c7cccc(Oc8ccccc8)c7)O6)[C@H](O)[C@H](O)[C@H]5O)nn4)C(=O)NCCOCCOCCOCCOCCC(=O)Oc4c(F)c(F)c(F)c(F)c4F)nn3)[C@H](O)[C@@H](O)[C@H]2O)(C(=O)O)C[C@@H]1O (mixture of isomers) [Cpd. No. 26468]			Strong	V. weak
O=C(CO)N[C@H]1[C@H]([C@H](O)[C@H](O)CO)O[C@@](OCCOCCOCc2cn(CCOCCOCCOCCOCCC(=O)Oc3c(F)c(F)c(F)c(F)c3F)nn2)(C(=O)O)C[C@@H]1O [Cpd. No. 26614, (2R,4S,5R,6R)-4-hydroxy-5-(2-hydroxyacetamido)-2-(2-(2-((1-(15-oxo-15-(perfluorophenoxy)-3,6,9,12-tetraoxapentadecyl)-1H-1,2,3-triazol-4-yl)methoxy)ethoxy)ethoxy)-6-((1R,2R)-1,2,3-trihydroxypropyl)tetrahydro-2H-pyran-2-carboxylic acid]			Weak	Weak
O=C(CCOCCOCCn1cc(COCCOCCO[C@]2(C(=O)O)C[C@H](O)[C@@H](NC(=O)CO)[C@H]([C@H](O)[C@H](O)CNC(=O)Cc3ccc(-c4ccccc4)cc3)O2)nn1)NCCCC[C@H](NC(=O)CCCNC(=O)CCOCCOCCn1cc(COCCOCCO[C@]2(C(=O)O)C[C@H](O)[C@@H](NC(=O)CO)[C@H]([C@H](O)[C@H](O)CNC(=O)Cc3ccc(-c4ccccc4)cc3)O2)nn1)C(=O)NCCOCCOCCOCCOCCC(=O)Oc1c(F)c(F)c(F)c(F)c1F [Cpd. No. 26475]			Strong	Strong
O=C(CCOCCOCCOCCOCCn1cc(COCCOCCOCCOCCO)nn1)Oc1c(F)c(F)c(F)c(F)c1F [Cpd. No. 26530, perfluorophenyl 1-(4-(13-hydroxy-2,5,8,11-tetraoxatridecyl)-1H-1,2,3-triazol-1-yl)-3,6,9,12-tetraoxapentadecan-15-oate]			No Binding	No Binding
CC(=O)N[C@H]1[C@H]([C@H](O)[C@H](O)CNC(=O)c2cccc(Oc3ccccc3)c2)O[C@@](OCCOCCOCc2cn(CCOCCOCCOCCOCCC(=O)Oc3c(F)c(F)c(F)c(F)c3F)nn2)(C(=O)O)C[C@@H]1O [Cpd. No. 24836, (2R,4S,5R,6R)-5-acetamido-6-((1R,2R)-1,2-dihydroxy-3-(3-phenoxybenzamido)propyl)-4-hydroxy-2-(2-(2-((1-(15-oxo-15-(perfluorophenoxy)-3,6,9,12-tetraoxapentadecyl)-1H-1,2,3-triazol-4-yl)methoxy)ethoxy)ethoxy)tetrahydro-2H-pyran-2-carboxylic acid]			Strong	V. weak
O=C(CCOCCOCCn1cc(CCO[C@@H]2O[C@H](CO[C@]3(C(=O)O)C[C@H](O)[C@@H](NC(=O)CO)[C@H]([C@H](O)[C@H](O)CNC(=O)Cc4ccc(-c5ccccc5)cc4)O3)[C@H](O)[C@H](O)[C@H]2O)nn1)NCCCCC(NC(=O)CCCNC(=O)CCOCCOCCn1cc(CCO[C@@H]2O[C@H](CO[C@]3(C(=O)O)C[C@H](O)[C@@H](NC(=O)CO)[C@H]([C@H](O)[C@H](O)CNC(=O)Cc4ccc(-c5ccccc5)cc4)O3)[C@H](O)[C@H](O)[C@H]2O)nn1)C(=O)NCCOCCOCCOCCOCCC(=O)Oc1c(F)c(F)c(F)c(F)c1F (mixture of isomers) [Cpd. No. 26416]			Strong	Strong
O=C(CCOCCOCCn1cc(COCCOCCOCCOCCO)nn1)NCCCC[C@@H](NC(=O)CCCNC(=O)CCOCCOCCn1cc(COCCOCCOCCOCCO)nn1)C(=O)N[C@H](CCCCNC(=O)CCOCCOCCn1cc(COCCOCCOCCOCCO)nn1)C(=O)NCCOCCOCCOCCOCCC(=O)Oc1c(F)c(F)c(F)c(F)c1F [Cpd. No. 26534, perfluorophenyl (16R,19R)-1-(4-(13-hydroxy-2,5,8,11-tetraoxatridecyl)-1H-1,2,3-triazol-1-yl)-16,19-bis(4-(3-(2-(2-(4-(13-hydroxy-2,5,8,11-tetraoxatridecyl)-1H-1,2,3-triazol-1-yl)ethoxy)ethoxy)propanamido)butyl)-9,14,17,20-tetraoxo-3,6,24,27,30,33-hexaoxa-10,15,18,21-tetraazahexatriacontan-36-oate]			No Binding	No Binding
C#CCOCCOCCO[C@]1(C(=O)O)C[C@H](O)[C@@H](NC(=O)CO)[C@H]([C@H](O)[C@H](O)CO)O1 [Cpd. No. 26591, (2R,4S,5R,6R)-4-hydroxy-5-(2-hydroxyacetamido)-2-(2-(2-(prop-2-yn-1-yloxy)ethoxy)ethoxy)-6-((1R,2R)-1,2,3-trihydroxypropyl)tetrahydro-2H-pyran-2-carboxylic acid]	> 450	> 1000		
C#CCCO[C@@H]1O[C@H](CO[C@]2(C(=O)O)C[C@H](O)[C@@H](NC(=O)CO)[C@H]([C@H](O)[C@H](O)CNC(=O)Cc3ccc(-c4ccccc4)cc3)O2)[C@H](O)[C@H](O)[C@H]1O	2.5	17.2		
O=C(CCOCCOCCn1cc(COCCOCCO[C@]2(C(=O)O)C[C@H](O)[C@@H](NC(=O)CO)[C@H]([C@H](O)[C@H](O)CNC(=O)Cc3ccc(-c4ccccc4)cc3)O2)nn1)NCCCC[C@H](NC(=O)CCCNC(=O)CCOCCOCCn1cc(COCCOCCO[C@]2(C(=O)O)C[C@H](O)[C@@H](NC(=O)CO)[C@H]([C@H](O)[C@H](O)CNC(=O)Cc3ccc(-c4ccccc4)cc3)O2)nn1)C(=O)N[C@@H](CCCCNC(=O)CCOCCOCCn1cc(COCCOCCO[C@]2(C(=O)O)C[C@H](O)[C@@H](NC(=O)CO)[C@H]([C@H](O)[C@H](O)CNC(=O)Cc3ccc(-c4ccccc4)cc3)O2)nn1)C(=O)NCCOCCOCCOCCOCCC(=O)Oc1c(F)c(F)c(F)c(F)c1F [Cpd. No. 26477]			Strong	Strong
O=C(CCOCCOCCn1cc(COCCOCCO[C@]2(C(=O)O)C[C@H](O)[C@@H](NC(=O)CO)[C@H]([C@H](O)[C@H](O)CO)O2)nn1)NCCCC[C@H](NC(=O)CCCNC(=O)CCOCCOCCn1cc(COCCOCCO[C@]2(C(=O)O)C[C@H](O)[C@@H](NC(=O)CO)[C@H]([C@H](O)[C@H](O)CO)O2)nn1)C(=O)NCCOCCOCCOCCOCCC(=O)Oc1c(F)c(F)c(F)c(F)c1F [Cpd. No. 26615]			Weak	Weak
